Bridge positions count the residues as written; N and C are the ends.

This experiment concerns mussel CALCRIIa. As to the kind of experiment: Calcium mobilization assay (apoaequorin bioluminescence), dose-response, HEK 293 cells expressing mussel CALCRIIa. The format is cell-based, Mytilus galloprovincialis. The note with it: calcium mobilization, HEK 293/apoaequorin, 1 μM to 0.01 nM. From the text: The complete sequence of the Mediterranean mussel CALCRIa was amplified using specific primers (Table 1) from cDNA of a tissue mixture (mantle, adductor muscle, gills, gonads) using a proofreading DNA polymerase (iProof BIORAD, Portugal) and cloned into the pGEMT-easy vector (PROMEGA, Spain). The Mediterranean mussel CALCRIIa transcript that was found in the mantle transcriptome was incomplete and lacked the N-terminus (by comparisons with the hard-shelled mussel homologue) and so the remaining sequence (from 1–393 bp) was deduced from the hard-shelled mussel homologue receptor and the receptor was synthesised and supplied by GENESCRIPT (USA). The complete transcripts for mussel CALCRIc, CALCRIIb and CALCRIIc were only found in the hard-shelled mussel mantle transcriptome and homologues were only found in the Mediterranean mussel genome as they were absent from the species mantle transcriptome and so they were also synthesised and supplied by GENESCRIPT (USA) using the hard-shelled mussel receptor sequences as template. The mussel CALCRIb transcript was incomplete and lacked both N and C-terminal regions and it was not possible to obtain the complete transcript either by searching both mussels mantle transcriptomes or the Mediterranean mussel genome and so it was not produced. All synthetized receptors were provided in the pUC57 cloning vector by the company and receptor codon usage was optimized to favour a high level of expression in mammalian cells.
Mammalian cell cultures and transfections followed the methodology described by[89],[90]. Mammalian HEK293 cells (ECACC, UK) were used and they were maintained in complete Dulbecco’s modified Eagle’s medium (DMEM, 4.5 g/l glucose, 110 mg/l sodium pyruvate and L-glutamine, SIGMA-ALDRICH, Spain) supplemented with 10% sterile foetal bovine serum (FBS), 0.1% penicillin: streptomycin antibiotic mix (10,000 U:10 mg/ml, Sigma) and 250 μg /ml sterile filtered 1:100 amphotericin B solution (SIGMA-ALDRICH) in a humid 5% CO2 incubator (HERAEUS, Portugal) at 37 °C. On the day prior to transfection, 2–3 × 10^5 HEK293 cells were seeded on 6 well plates (SARSTEDT, Portugal) and transfected with Fugene HD transfection reagent (2 DNA: 4 Fugene ratio, PROMEGA) following the manufacturer’s protocol. Seventy-two hours after transfection, 800 μg/ml of the antibiotic Geneticin (SIGMA-ALDRICH) was added to the medium to select and isolate stable receptor cell lines. Cell recovery was monitored daily and the medium was changed every two days until no cell death was observed. […]
HEK293 cells stably expressing five mussel receptors (CALCRIa, CALCRIc, CALCRIIa, CALCRIIb and CALCRIIc) were stimulated with the two mussel peptides and the vertebrate (human and salmon) calcitonins. Receptor activation was assessed in vitro by measuring two intracellular signalling pathways: a) production of cAMP and b) mobilization of calcium (Ca^2+). The cellular response was initially assessed using 10 μM of each peptide. […]
Stable cell lines expressing the mussel receptors were transiently co-transfected with the mitochondrial targeted apo-aequorin protein cloned in pcDNA3.1. Two days after transfection cells were washed, counted and resuspended in 1 ml of DMEM /F12 Ham (without phenol red)/0.1% BSA supplemented with 2 µM coelenterazine (SIGMA-ALDRICH). […] The injector system of the Biotek Synergy 4 microplate reader (USA) was used to inject 50 µl of the cell suspensions into wells containing 50 μl of the diluted peptide in DMEM / F12 Ham / 0.1% BSA. […]

For the substance “H-CTWGGGMSDEMCSTVDIDEIQRSFQVIHDRNSP-NH2 (disulfide 1-12 (inferred)) [CALCIIa, Mediterranean mussel calcitonin-like mature peptide, 33 aa, synthesized with disulphide bond and C-terminal amidation]”, the “Activation of mussel CALCRIIa in dose-response analysis (in words)” value is “not activated”.

The values are drawn from PMC7200681, “The calcitonin-like system is an ancient regulatory system of biomineralization” (Scientific Reports, 2020).
